According to PubChem BioAssay AID743422 (The Scripps Research Institute Molecular Screening Center, 2014):
The source made the active and inactive calls. How the calls were made is not given here.

Molecular target: Sphingosine 1-phosphate receptor 1 (Homo sapiens) (UniProt P21453)
Experiment: human S1P1 antagonists, dose response, counter-screen for S1PR3 antagonist project, cell-based, luminescence, late-stage (AID 743422)
Conditions: Tango EDG-1-bla U2OS cells, beta-lactamase FRET reporter, 5 h S1P

Sphingosine 1-phosphate receptor 1 (Homo sapiens), sequence (P21453 whole entry, looked up): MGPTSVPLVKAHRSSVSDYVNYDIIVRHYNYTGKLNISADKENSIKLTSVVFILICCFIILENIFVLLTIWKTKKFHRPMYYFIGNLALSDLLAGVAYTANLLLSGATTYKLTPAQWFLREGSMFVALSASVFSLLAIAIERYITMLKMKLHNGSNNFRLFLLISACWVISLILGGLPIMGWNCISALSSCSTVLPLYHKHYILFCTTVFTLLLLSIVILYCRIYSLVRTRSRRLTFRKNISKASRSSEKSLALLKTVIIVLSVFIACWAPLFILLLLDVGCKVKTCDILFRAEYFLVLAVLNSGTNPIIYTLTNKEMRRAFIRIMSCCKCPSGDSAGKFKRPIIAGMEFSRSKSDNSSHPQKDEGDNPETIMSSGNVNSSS

SMILES	IC50
O=C(NC(c1ccc(Cl)cc1)c1nc(-c2cccc(Cl)c2)no1)c1cccc(Cl)c1 (centres undefined)	> 28.2 µM (inactive)
CCc1ccc(C(NC(=O)c2cccc(Cl)c2)c2nc(-c3ccccc3)no2)cc1 (centres undefined)	> 28.2 µM (inactive)
O=C(NC(c1ccc(Cl)c(Cl)c1)c1nc(-c2ccccc2)no1)c1ccc(Cl)cc1 (centres undefined)	1.2 µM
O=C(c1cccc(Cl)c1)N(CCO)C(c1ccc(Cl)c(Cl)c1)c1nc(-c2ccccc2)no1 (centres undefined)	2.7 µM
COc1ccc(C(=O)NC(c2ccccc2)c2nc(-c3ccccc3)no2)cc1 (centres undefined)	> 28.2 µM (inactive)
Cc1ccc(C(=O)NC(c2ccccc2)c2nc(-c3ccccc3)no2)cc1 (centres undefined)	> 28.2 µM (inactive)
O=C(NC(Cc1ccccc1)c1nc(-c2ccccc2)no1)c1cccc(Cl)c1 (centres undefined)	> 28.2 µM (inactive)
O=C(NC(c1ccc(Cl)cc1)c1nc(-c2ccccc2)no1)c1cccc(Cl)c1 (centres undefined)	> 28.2 µM (inactive)
O=C(NC(c1cccc(Cl)c1)c1nc(-c2ccccc2)no1)c1cc(Cl)cc(Cl)c1 (centres undefined)	0.112 µM
O=C(NC(c1ccc(Cl)cc1)c1nc(-c2ccccc2)no1)c1ccc(Cl)c(Cl)c1 (centres undefined)	inactive
O=C(NC(c1ccc(Br)cc1)c1nc(-c2ccccc2)no1)c1ccc(Cl)c(Cl)c1 (centres undefined)	> 28.2 µM (inactive)
O=C(NC(c1ccccc1)c1nc(-c2ccccc2)no1)c1ccc(Cl)cc1 (centres undefined)	7.3 µM
O=C(NC(c1ccc(Cl)cc1)c1nc(-c2ccccn2)no1)c1cccc(Cl)c1 (centres undefined)	> 28.2 µM (inactive)
O=C(NC(c1ccccc1)c1nc(-c2ccccc2)no1)c1cccc(Cl)c1 (centres undefined)	1.6 µM
